The numbers were not newly measured in patent US20100317740A1, “Method for Predicting Response to Tamoxifen” (GEORGE MASON INTELLECTUAL PROPERTIES, INC., priority 2007, published 2010), which cites them from elsewhere.

This data set concerns node negative breast cancer with estrogen receptor on tumors. To be noted: women with node negative breast cancer and estrogen receptor on their tumors.

For `CC/C(=C(\c1ccccc1)c1ccc(OCCN(C)C)cc1)c1ccccc1` [Tamoxifen], the “eligible women who do not respond to Tamoxifen therapy” value is on record as 30-40%.
